According to publication PMC12040169 (PLOS Biology, 2025):

Assay: in vitro
Settings: human, hela cells, % viability

Compound	viability at 28.5 h, 10 µM [%]
COCCNc1cc(-c2ccc(SC)cc2)ncn1 [CBK090795]	105
COCCNc1cc(-c2ccc(Cl)cc2)ncn1 [CBK090797]	96.3
COCCNc1cc(-c2ccc(NC(C)=O)cc2)ncn1 [CBK090799]	97.8
COCCNc1cc(-c2ccc(F)c(F)c2)ncn1 [CBK090800]	100
CN(C)c1cccc(-c2cc(Nc3ccc4c(c3)OCCO4)ncn2)c1 [CBK090808]	66.3
COc1ccc(Nc2cc(-c3ccsc3)ncn2)cc1OC [CBK090820]	97.2
COc1ccc(Nc2cc(-c3ccco3)ncn2)cc1OC [CBK090822]	99.5
CCn1c2ccccc2c2cc(Nc3cc(-c4cccc5ccccc45)ncn3)ccc21 [CBK090834]	50.6
CCn1c2ccccc2c2cc(Nc3cc(-c4ccc(OC(F)(F)F)cc4)ncn3)ccc21 [CBK090842]	87.3
c1nc(Nc2ccc3[nH]ccc3c2)cc(-c2ccc(N3CCOCC3)cc2)n1 [CBK090851]	91.1
c1ccc2cc(-c3cc(Nc4ccc5[nH]ccc5c4)ncn3)ccc2c1 [CBK090853]	80.1
FC(F)(F)c1cc(-c2cc(Nc3ccc4[nH]ccc4c3)ncn2)cc(C(F)(F)F)c1 [CBK090855]	97.9
c1ccc(COc2ccccc2-c2cc(Nc3ccc4[nH]ccc4c3)ncn2)cc1 [CBK090856]	107
c1ccc(COc2ccc(-c3cc(Nc4ccc5[nH]ccc5c4)ncn3)cc2)cc1 [CBK090857]	111
c1ccc2sc(-c3cc(Nc4ccc5[nH]ccc5c4)ncn3)cc2c1 [CBK090858]	82.5
O=[N+]([O-])c1cccc(-c2cc(Nc3ccc4[nH]ccc4c3)ncn2)c1 [CBK090860]	108
CN(C)c1ccccc1-c1cc(Nc2ccc(C(C)(C)C)cc2)ncn1 [CBK090872]	95.4
CCNc1cc(-c2ccc(N3CCOCC3)cc2)ncn1 [CBK090876]	115
CCNc1cc(-c2cccc(N(C)C)c2)ncn1 [CBK090878]	97.8
CCNc1cc(-c2ccc(Cl)cc2)ncn1 [CBK090880]	99
CCNc1cc(-c2cncc(OC)c2)ncn1 [CBK090881]	101
CCNc1cc(-c2ccc(OC)cc2)ncn1 [CBK090883]	89

Compound	viability at 28.5 h, 10 µM [%]
CCNc1cc(-c2ccc(CC(C)C)cc2)ncn1 [CBK090884]	102
Nc1cccc(-c2cc(Nc3ccc(Cl)cc3)ncn2)c1 [CBK090886]	91.7
CCCCCOc1ccc(Nc2cc(-c3ccccc3N(C)C)ncn2)cc1 [CBK090890]	81.9
CCCCCOc1ccc(Nc2cc(-c3ccco3)ncn2)cc1 [CBK090892]	92.6
CN1CCN(c2ccc(-c3cc(NC4CCCCC4)ncn3)cn2)CC1 [CBK090899]	96.7
CN(C)c1cccc(-c2cc(NC3CCCCC3)ncn2)c1 [CBK090900]	109
Clc1ccc(-c2cc(NC3CCCCC3)ncn2)cc1 [CBK090902]	101
Nc1cccc(-c2cc(Nc3cccc(OCc4ccccc4)c3)ncn2)c1 [CBK090915]	113
c1ccc(Oc2ccc(Nc3cc(-c4ccc(N5CCOCC5)cc4)ncn3)cc2)cc1 [CBK090923]	83.3
c1ccc(-c2cccc(-c3cc(Nc4ccc(N5CCOCC5)cc4)ncn3)c2)cc1 [CBK090930]	90.2
COc1cc(-c2cc(Nc3ccc(N(C)C)cc3)ncn2)cc(OC)c1OC [CBK090945]	38.7
CN(C)c1ccc(Nc2cc(-c3ccco3)ncn2)cc1 [CBK090946]	90.3
Cc1ccc(S(=O)(=O)Nc2ccc(Nc3cc(-c4ccc(CNC(=O)OC(C)(C)C)cc4)ncn3)cc2)cc1 [CBK090967]	96.8
Cc1ccc(S(=O)(=O)Nc2ccc(Nc3cc(-c4cccc5oc6ccccc6c45)ncn3)cc2)cc1 [CBK090977]	91.1
Cc1ccc(S(=O)(=O)Nc2ccc(Nc3cc(-c4cccc([N+](=O)[O-])c4)ncn3)cc2)cc1 [CBK090983]	109
COc1cncc(-c2cc(Nc3ccc(NS(=O)(=O)c4ccc(C)cc4)cc3)ncn2)c1 [CBK090988]	94.1
CCN(CCO)c1ccc(Nc2cc(-c3ccsc3)ncn2)cc1 [CBK091000]	89.5
CCN(CCO)c1ccc(Nc2cc(-c3cccc([N+](=O)[O-])c3)ncn2)cc1 [CBK091002]	92.2
CN(C)c1cccc(Nc2cc(-c3ccc(CCC(=O)O)cc3)ncn2)c1 [CBK091010]	93.1
CC(=O)Nc1ccc(-c2cc(Nc3cccc(N(C)C)c3)ncn2)cc1 [CBK091017]	83.7
COc1ccc(N2CCN(c3cc(-c4cc(C(F)(F)F)cc(C(F)(F)F)c4)ncn3)CC2)cc1OC [CBK091020]	96.1
COc1ccc(N2CCN(c3cc(-c4ccccc4OCc4ccccc4)ncn3)CC2)cc1OC [CBK091024]	97.5

Compound	viability at 28.5 h, 10 µM [%]
COc1ccc(N2CCN(c3cc(-c4ccc(CCC(=O)O)cc4)ncn3)CC2)cc1OC [CBK091030]	94.1
COc1ccc(N2CCN(c3cc(-c4cccc([N+](=O)[O-])c4)ncn3)CC2)cc1OC [CBK091031]	86.4
COc1ccc(N2CCN(c3cc(-c4ccc(OC(F)(F)F)cc4)ncn3)CC2)cc1OC [CBK091032]	94.1
CC[C@@H]1CCCCN1C(=O)c1sc2nc(C(C)=O)ccc2c1Cl [CBK091036]	88.1
CC[C@H]1CCCCN1C(=O)c1sc2nc(C(C)=O)ccc2c1Cl [CBK091046]	101
Cc1cc(O)ccc1Nc1cc(-c2ccccc2N(C)C)ncn1 [CBK091051]	104
COc1cncc(-c2cc(Nc3ccc(O)cc3C)ncn2)c1 [CBK091061]	103
O=C(CN1CCN(c2cc(-c3ccc4ccccc4c3)ncn2)CC1)N1CCCC1 [CBK091064]	104
O=C(O)CCc1ccc(-c2cc(N3CCN(CC(=O)N4CCCC4)CC3)ncn2)cc1 [CBK091079]	104
c1ccc(Oc2ccccc2-c2cc(N3CCN(c4ccccn4)CC3)ncn2)cc1 [CBK091083]	91.5
c1ccc(N2CCN(c3cc(-c4cc5ccccc5s4)ncn3)CC2)nc1 [CBK091084]	102
O=[N+]([O-])c1cccc(-c2cc(NCCc3ccccn3)ncn2)c1 [CBK091087]	96.7
Nc1ccc(C(=O)Nc2ccc(Nc3cc(-c4cc(C(F)(F)F)cc(C(F)(F)F)c4)ncn3)cc2)cc1 [CBK091091]	94.8
Nc1ccc(C(=O)Nc2ccc(Nc3cc(-c4ccccc4OCc4ccccc4)ncn3)cc2)cc1 [CBK091092]	94.4
O=C(c1ccco1)N1CCN(c2cc(-c3cccc4cccnc34)ncn2)CC1 [CBK091117]	99.1
COc1cncc(-c2cc(N3CCN(C(=O)c4ccco4)CC3)ncn2)c1 [CBK091121]	97.4
CN(C(=O)CN1CCN(c2cc(-c3ccsc3)ncn2)CC1)c1ccccc1 [CBK091129]	99.7
CN(C(=O)CN1CCN(c2cc(-c3cccc4oc5ccccc5c34)ncn2)CC1)c1ccccc1 [CBK091130]	97.8
CC(=O)Nc1cccc(-c2cc(N3CCN(CC(=O)N(C)c4ccccc4)CC3)ncn2)c1 [CBK091134]	99.7
CN(C(=O)CN1CCN(c2cc(-c3cccc([N+](=O)[O-])c3)ncn2)CC1)c1ccccc1 [CBK091137]	103
Cc1ccc(Nc2cc(-c3ccsc3)ncn2)cc1NS(C)(=O)=O [CBK091149]	97.9
Cc1ccc(Nc2cc(-c3cccc4oc5ccccc5c34)ncn2)cc1NS(C)(=O)=O [CBK091150]	93.6

Compound	viability at 28.5 h, 10 µM [%]
COc1cncc(-c2cc(N3CCN(S(=O)(=O)c4ccc(Cl)cc4)CC3)ncn2)c1 [CBK091162]	108
CC(=O)c1ccc(-c2cc(N3CCN(CCN4CCCC4)CC3)ncn2)s1 [CBK091169]	98.8
COc1cc(CNc2cc(-c3ccco3)ncn2)cc(OC)c1OC [CBK091181]	106
COc1cncc(-c2cc(NCc3cc(OC)c(OC)c(OC)c3)ncn2)c1 [CBK091183]	88.4
COc1ccc(-c2cc(NCc3cc(OC)c(OC)c(OC)c3)ncn2)cc1 [CBK091184]	90
COc1cc(CNc2cc(-c3ccc(NC(C)=O)cc3)ncn2)cc(OC)c1OC [CBK091185]	93.6
N#CCc1ccc(Nc2cc(-c3cccc(N)c3)ncn2)cc1 [CBK091187]	96.7
CCN(CC)CCN1CCN(c2cc(-c3cc(C(F)(F)F)cc(C(F)(F)F)c3)ncn2)CC1 [CBK091195]	94
CC(=O)c1cccc(-c2cnc(Nc3ccc(N4CCOCC4)cc3)c3nccn23)c1 [CBK091217]	91.5
COc1cc(CNc2ncc(-c3ccc(N4CCOCC4)cc3)n3ccnc23)cc(OC)c1OC [CBK091219]	100
c1coc(CNc2ncc(-c3ccc(N4CCOCC4)cc3)n3ccnc23)c1 [CBK091220]	102
CN(C)c1cccc(Nc2ncc(-c3ccc(N4CCOCC4)cc3)n3ccnc23)c1 [CBK091222]	94.5
O=C(c1ccco1)N1CCN(c2ncc(-c3ccc(N4CCOCC4)cc3)n3ccnc23)CC1 [CBK091225]	92.6
Clc1ccc(CNc2ncc(-c3ccc(N4CCOCC4)cc3)n3ccnc23)cc1Cl [CBK091229]	84.3
CC(=O)c1ccc(-c2cnc(Nc3ccc(N4CCOCC4)cc3)c3nccn23)s1 [CBK091231]	95.3
COc1ccc(-c2cnc(Nc3ccc(N4CCOCC4)cc3)c3nccn23)cn1 [CBK091238]	92
CCCC/C=C/c1cnc(Nc2ccc(N3CCOCC3)cc2)c2nccn12 [CBK091239]	91.3
COc1ccc(NC(=O)c2ccc(-c3cnc(Nc4ccc(N5CCOCC5)cc4)c4nccn34)cc2)cc1 [CBK091240]	96.7
CCCC/C=C/c1cnc(N2CCOCC2)c2nccn12 [CBK091256]	102
